Data published in the supplement of paper PMC10307832.

Assays:
Assay in all cases: relative viability (nuclei count vs DMSO), 5 days (fraction); higher = more cells survive
VX-11e + OSI-027 = compound: CC1=CN=C(N=C1C2=CNC(=C2)C(=O)N[C@H](CO)C3=CC(=CC=C3)Cl)NC4=C(C=C(C=C4)F)Cl [VX-11e] + COc1cccc2cc(-c3nc([C@H]4CC[C@H](C(=O)O)CC4)n4ncnc(N)c34)[nH]c12 [OSI-027] (partner 0.5 µM)
Summary of the method: (§1)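 Lung cancer cell lines, seeded in 1536-well plates, were treated the following day by pin tool with a single drug or with five library-drug doses (not always all listed) in √10 steps on top of a fixed anchor-drug dose. Cells were fixed and nuclei stained in one step after 5 days, and nuclei were counted. Relative viability is the nuclei count for treated wells divided by that for vehicle wells, reported as medians of duplicate plates.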

VX-11e + Trametinib = compound: CC1=CN=C(N=C1C2=CNC(=C2)C(=O)N[C@H](CO)C3=CC(=CC=C3)Cl)NC4=C(C=C(C=C4)F)Cl [VX-11e] + CC(=O)Nc1cccc(-n2c(=O)n(C3CC3)c(=O)c3c(Nc4ccc(I)cc4F)n(C)c(=O)c(C)c32)c1 [Trametinib] (partner 0.02 µM)
Summary of the method: as §1

VX-11e + Phenformin = compound: CC1=CN=C(N=C1C2=CNC(=C2)C(=O)N[C@H](CO)C3=CC(=CC=C3)Cl)NC4=C(C=C(C=C4)F)Cl [VX-11e] + N=C(N)NC(=N)NCCc1ccccc1 [Phenformin] (partner 250 µM)
Summary of the method: as §1

VX-11e + Crizotinib = compound: CC1=CN=C(N=C1C2=CNC(=C2)C(=O)N[C@H](CO)C3=CC(=CC=C3)Cl)NC4=C(C=C(C=C4)F)Cl [VX-11e] + C[C@@H](Oc1cc(-c2cnn(C3CCNCC3)c2)cnc1N)c1c(Cl)ccc(F)c1Cl [Crizotinib] (partner 1 µM)
Summary of the method: as §1

Cell Line	relative viability (VX-11e + OSI-027; first compound 0.04 µM)	relative viability (VX-11e + OSI-027; first compound 0.1265 µM)	relative viability (VX-11e + OSI-027; first compound 0.4 µM)	relative viability (VX-11e + OSI-027; first compound 1.265 µM)	relative viability (VX-11e + OSI-027; first compound 4 µM)	relative viability (VX-11e + Trametinib; first compound 0.04 µM)	relative viability (VX-11e + Trametinib; first compound 0.1265 µM)	relative viability (VX-11e + Trametinib; first compound 0.4 µM)	relative viability (VX-11e + Trametinib; first compound 1.265 µM)	relative viability (VX-11e + Trametinib; first compound 4 µM)	relative viability (VX-11e + Phenformin; first compound 0.04 µM)	relative viability (VX-11e + Phenformin; first compound 0.1265 µM)	relative viability (VX-11e + Phenformin; first compound 0.4 µM)	relative viability (VX-11e + Phenformin; first compound 1.265 µM)	relative viability (VX-11e + Phenformin; first compound 4 µM)	relative viability (VX-11e + Crizotinib; first compound 0.04 µM)	relative viability (VX-11e + Crizotinib; first compound 0.1265 µM)	relative viability (VX-11e + Crizotinib; first compound 0.4 µM)	relative viability (VX-11e + Crizotinib; first compound 1.265 µM)	relative viability (VX-11e + Crizotinib; first compound 4 µM)
NCI-H1437	0.795	0.725	0.878	0.444	0.373	0.539	0.472	0.574	0.358	0.305	0.334	0.257	0.226	0.297	0.225	1.05	0.957	0.853	0.974	0.487
NCI-H1650	0.592	0.534		0.402	0.307	0.76	0.589	0.562	0.553	0.397	0.478	0.343		0.315	0.295	1.06	0.87	0.751	0.912	0.874
NCI-H1651	0.56	0.62	0.523	0.548	0.591	0.881	0.808	0.78	0.691	0.781	0.347	0.301	0.23	0.314	0.305	0.916	0.821	0.826	0.768	0.812
NCI-H1666	0.932	0.777	0.75	0.611	0.524	0.866	0.77		0.848	0.726	0.556	0.554	0.478	0.569	0.503	1.03	0.818	0.753	0.752	0.456
